Data reported in a melting point compilation (Tetko et al.; mined from patent text by program, amines drawn as free bases though some values may be those of a salt).

| SMILES | melting point [°C] |
| --- | --- |
| CCCCc1ccc(CN(CCCCCCC(=O)O)S(C)(=O)=O)cc1 | 137 |
| CCOC(=O)c1c[nH]c(Cc2ccc(OC)cc2)n1 | 119 to 121 |
| CCOC(=O)CCCOc1c(Br)cc(Br)c(C(N)=O)c1Br | 138 to 140 |
| CC(=O)c1cccc(-c2ccc(OC[C@H](O)CCc3cccnc3)cc2)c1 | 58 to 60 |
| CC(=O)OC1CSC(Oc2cncc(S(=O)(=O)c3ccccc3)c2)C(OC(C)=O)C1OC(C)=O (centres undefined) | 97 to 99 |
| CC1CC(=O)c2c(ccc(Cl)c2Cl)O1 (centres undefined) | 135 to 140 |
| CCc1ccc(Cc2c(OCc3ccccc3)n[nH]c2C)cc1 | 80 to 83 |
| CC=C(NC(=O)C1CC1(CC)CC)C(=O)O (centres undefined) | 129 to 130 |
| CCC(=O)Nc1cc(C2=NNC(=O)CC2C)ccc1N1CCOCC1 (centres undefined) | 193 to 196 |
| CCCCCCCCCCCCCCCNC(=O)OCCOCCOC(=O)N(Cc1ccccn1)C(C)=O | 53 to 55 |
| CC(=O)C1C(C)CC2C3CCC4=CCC=CC4(C)C3CCC21C (centres undefined) | 175 |
| CC(C)(C)OC(=O)N1CCC(CBr)CC1 | 48 to 50 |
| CCCc1c(OCC(O)CSc2ccc(CC(=O)OC)c(Cl)c2Cl)ccc(C(C)=O)c1O (centres undefined) | 85 to 88 |
| CCC(C#Cc1cccc(Oc2ccccn2)c1)N(O)C(N)=O (centres undefined) | 96 to 98 |
| COc1cc(OC)c(C)c(C(=O)NCC23CC4CC(CC(C4)C2)C3)c1 | 173 to 175 |
| O=C(NCCCOc1ccccn1)c1cccs1 | 91 to 92 |
| CC(C)(C)OC(=O)Nc1cccc(-c2noc(CCC(=O)O)n2)c1 | 143 to 144 |
| O=C(Cl)CCS(=O)(=O)CCCl | 73 to 75 |
| COC(=O)COc1cccnc1 | 174 |
| CCc1ccc2cc[nH]c2n1 | 117 to 120 |
| COC(=O)c1ccc(-c2nnc(-c3ccc(C(F)(F)F)cc3)o2)c(N)c1 | 237 to 238 |
| COc1cc2c(cc1Br)CCC2=O | 149 to 151 |
| CCOC(=O)c1ccc(C#CC2(O)CN3CCC2CC3)cc1 (centres undefined) | 176 to 177 |
| Fc1ccccc1C1=NCc2c(N3CCCC3)ncn2-c2ccc(Cl)cc21 | 114 to 118 |
| CSC1NC(=O)N(c2ccc(Cl)cc2)C(=O)N1N=C(C)C (centres undefined) | 142 to 144 |
| CCN1C(=O)C(C)(C)C(=O)N(C)c2cc(CN(CCn3ccc4oc(C)cc4c3=O)Cc3cccnc3C#N)ccc21 | 114 to 118 |

| SMILES | melting point [°C] |
| --- | --- |
| N#CC1C(=O)NC(=O)C(C#N)C12CCN(Cc1ccccc1)CC2 (centres undefined) | 179 to 181 |
| N#Cc1nc(Cl)nc(N2CCS(=O)CC2)c1Cl | 145 to 147 |
| CC(Oc1ccc(Oc2ccc(C(F)(F)F)cc2)cc1)C(N)=O (centres undefined) | 147 to 149 |
| O=C(O)c1cn(-c2cccnc2)c2c(F)c(F)c(F)cc2c1=O | 122 to 124 |
| CCCCOc1ccc2c(=O)c(-c3nnnn3C)cn(C)c2c1 | 187 to 190 |
| O=C1NC(=O)C2(N1)C(=O)N(Cc1ccc(Cl)c(Cl)c1)c1ccc(Cl)cc12 (centres undefined) | 257 to 259 |
| CCCCc1nc(-c2ccc(C(=O)NCCC(C)(C)C)cc2)no1 | 78 to 80 |
| Cc1cc(Oc2ccc(S(C)(=O)=O)c(S(F)(F)(F)(F)F)c2)c(S(C)(=O)=O)cc1C(=O)NC(=N)N | 275 |
| Cc1cnc2c(C#N)c(C)nn2c1-c1ccccc1 | 208 to 210 |
| N#Cc1ccc(Sc2cccc3cnccc23)c(Cl)c1 | 126 to 128 |
| CC(=O)N[C@@H](C)c1ccc(C(C)=O)cc1 | 125 to 128 |
| Brc1ccc2c(c1)N=C(N1CCSCC1)c1cccc3c1N2CC3 | 165 to 167 |
| Cc1cc(-c2ccnn2-c2ccc(S(N)(=O)=O)c(F)c2C(F)F)ccc1-c1cscn1 | 204 |
| CC[C@H](C1CC1)n1cc(Cl)nc(N2CCc3cc(Br)cc(Cl)c32)c1=O | 126 to 127 |
| CCCCS(=O)(=O)NCc1ccc(C(=O)CN2CCN(c3ccncc3)CC2)cc1 | 101 to 103 |
| CCOCCCOc1ccc(-c2ccc3c(c2)C=C(C(=O)OC)CCN3)cc1 | 99 to 102 |
| NCc1ccc(C(=O)O)cc1[N+](=O)[O-] | 235 to 237 |
| CON(C)C(=O)c1cc(Cl)nc(Cl)c1 | 69 to 70 |
| O=C(O)[C@H]1C=C[C@H](c2ccccc2)n2c(=O)n(CCCl)c(=O)n21 (relative stereo) | 141 to 143 |
| NCC1Cc2cccc(-c3ccc4ccccc4c3)c2O1 (centres undefined) | 135 to 140 |
| CCN(CC)S(=O)(=O)c1ccc2c(c1)-c1c(nc(C)[nH]c1=O)CC2 | 249 to 251 |
| Cc1ccc2c(c1)C(C1=CCN(C(C)O)CC1)CC2(O)c1ccc(F)cc1 (centres undefined) | 177 to 178 |
| CCOC(=O)c1ccc(NC(=O)C2Cc3cc(SC)ccc3C(=O)CS2)cc1 (centres undefined) | 236 to 237 |
| O=C(CNCCO)Nc1cccc([N+](=O)[O-])c1 | 145 to 147 |
| O=C(Cc1nnn[nH]1)OCc1ccccc1 | 72 to 73 |
| Cc1oc(-c2ccccc2)nc1COc1ccc(CCCCc2nnn[nH]2)cn1 | 104 to 105 |

| SMILES | melting point [°C] |
| --- | --- |
| Cc1cc(C=O)ccc1NC(=O)OC(C)(C)C | 109 to 111 |
| CCCOc1ccc(-c2scc(-c3ccccc3)c2CC(=O)NC(=N)N)cc1 | 94 to 95 |
| CC(O)C1CCC2C3CCC4=CC(O)CCC4(C)C3CCC12C (centres undefined) | 169 to 170 |
| NCCCCCCc1ccc(Cl)cc1 | 71 |
| Cc1coc2c1C(=O)CC(c1cccs1)C2 (centres undefined) | 81 to 82 |
| COc1c(C)c(C)c(OC)c(C(O)(c2ccc(F)cc2)C(C)C)c1C (centres undefined) | 129 to 130 |
| Cc1nc2c3c(c(C(=O)O)cc2n1C)CCC(c1ccccc1)O3 (centres undefined) | 323 to 326 |
| C=CC(=O)N1C/C(=C\c2ccc([N+](=O)[O-])cc2)C(=O)/C(=C/c2ccc([N+](=O)[O-])cc2)C1 | 170 to 172 |
| CN1CCC(O)(c2cc(F)cc(Cl)c2)C1 (centres undefined) | 117 to 118 |
| CC(=CC(N)[C@@H]1CN(c2ccc(-c3cccnc3)cn2)C(=O)O1)[N+](=O)[O-] (some centres undefined) | 207 |
| CN1C(=O)COC(c2cccc(Cl)c2)c2cc(C(O)(c3ccc(Cl)cc3)c3cncn3C)ccc21 (centres undefined) | 160 |
| CCCCc1nc2ccc(C(C)=O)cc2c(=O)n1Cc1ccc(-c2ccccc2-c2nnnn2C(c2ccccc2)(c2ccccc2)c2ccccc2)cc1 | 104 to 105 |
| O=C(CC(Cc1cccc2ccccc12)C(=O)O)NCCc1c[nH]c2ccccc12 (centres undefined) | 73 to 75 |
| CS(=O)(=O)c1ccc(C(=O)O)c(Cl)c1CC#N | 169 to 172 |
| Clc1cc(N2CCCC2)nc(N2CCNCC2)n1 | 77 to 92 |
| COc1ccc(N2N=C3c4cc(Cl)ccc4SCCC3CC2=O)cc1 (centres undefined) | 159 to 161 |
| CN(C)c1cc(CCl)nc(N)n1 | 127 to 129 |
| CS(=O)(=O)c1ccc(CCN2CC=C(c3c[nH]c(-c4ccc(F)cc4)c3-c3ccncc3)CC2)cc1 | 207 to 209 |
| C=CCC(CC)(NC)C(=O)c1ccc(OCCO)cc1 (centres undefined) | 80 to 82 |
| COc1cccc2c(Nc3ccccc3C)c(C(C)=O)cnc12 | 171 to 173 |
| O=C(NC(Cc1cccc(Cl)c1)C(=O)N1CCSC1)c1cc2cc(Cl)ccc2[nH]1 (centres undefined) | 188 to 190 |
| Cc1noc(NS(=O)(=O)c2ccc(-c3cccs3)s2)c1Br | 210 |
| CCOC(=O)c1ccc(NCCOc2ccc(F)cc2)cc1 | 122 to 123 |
| COc1ccnc(C(=O)Nc2ccc(Oc3ccc(C(F)(F)F)cc3)cc2)c1O | 91 to 93 |
| N#Cc1c[nH]c2c(NS(=O)(=O)c3cccc(Cl)c3)cccc12 | 204 to 205 |
| CCCCCCCCCCCCCCOc1ccc(C(=O)N(CC(=O)O)CC(=O)O)cc1OCCCCCCCCCCCCCC | 84 to 87 |

| SMILES | melting point [°C] |
| --- | --- |
| Cc1nc(-c2ccc(C#N)cc2)sc1C(=O)N[C@H](C)[C@](O)(Cn1cncn1)c1ccc(C(F)(F)F)cc1 (relative stereo) | 105 to 111 |
| O=c1[nH]c2c3ccccc3ccc2n(Cc2ccccc2)c1=O | 308 |
| CCOc1cnc2nc(S(=O)(=O)Cl)nn2c1 | 134 to 137 |
| CCN(CC)C(=O)c1cccnc1OC | 83 |
| CC1(C)COC(c2ccccc2-c2ccc(CCl)cc2)=N1 | 72 to 75 |
| O=C(O)CCCCc1cccc2cncn12 | 161 to 163 |
| CNC(=O)CN1CCC(C(O)(c2ccc(F)cc2)c2ccc(F)cc2)CC1 | 122 to 124 |
| O=c1[nH]c2ccccc2c(=O)c2cc(Cl)ccc12 | 290 to 295 |
| C#CC#Cc1ccc(C(=O)O)cc1 | > 230 |
| C=CC(CC(=O)Nc1ccc(F)cc1)C(C)C (centres undefined) | 74 to 75 |
| CNc1ccc(C(=O)OC)c(OC)n1 | 120 to 122 |
| CCNc1nc(-c2ccc(NC(=O)OCc3cccnc3)cc2)ccc1C(=O)NC | 234 to 235 |
| CSc1nc(SCc2ccccc2)n[nH]1 | 80 to 82 |
| CCC(C)(O)CCCCc1cccc(CCc2ccc(O)c(CO)c2)c1 (centres undefined) | 101 to 104 |
| Cc1nc2cc3c4c(cccc4c2[nH]1)C(=O)N(O)C3=O | > 330 |
| CC(=O)N(C)c1cc(-c2ccnc3c(C(=O)c4cccs4)cnn23)ccc1F | 165 to 167 |
| Cc1cccc2c1nc(-c1c(F)cccc1F)n2Cc1c(F)c(F)c(F)c(F)c1F | 155 to 156 |
| CN(C)C1(Cc2ccccc2)CC=C(c2c[nH]c3ncccc23)CC1 (centres undefined) | 222 to 225 |
| COc1ccc([C@@H]2CN(C)CC[C@@H]2NC(=O)c2ccccc2)cc1 (relative stereo) | 164 to 165 |
| CCOC(=O)COc1ccc(N(C)Cc2ccc(-c3ccc(C(F)(F)F)cc3)nc2C)cc1CCCOC | 72 to 73 |
| CC(NS(=O)(=O)c1cc(C(=O)CCl)ccc1Cl)c1ccccc1 (centres undefined) | 127 |
| Cc1nc(Cc2ccccc2)c2c(c1O)COC2 | 212 to 214 |
| O=C(O)CS(=O)CC(=O)O | 118 to 119 |
| CCc1c(Cc2ccccc2)oc2c(C(=O)NCCCN3CCN(c4ccccc4OC)CC3)cccc12 | 110 to 112 |
| COc1cccc2c1cc(C(=O)NCCc1ccncc1)n2Cc1cccc(C(=N)NO)c1 | 220 to 222 |
| COC(=O)c1cc2c([nH]c3ccccc32)s1 | 200 to 201 |
